Source: ChEMBL document CHEMBL1777688, “TRPV1 modulators: structure-activity relationships using a rational combinatorial approach” (Bioorg Med Chem Lett, 2011)

Assays:
Format in all cases: cell-based
Details in all cases: Oocyte
[1] = target: Glutamate NMDA receptor; GRIN1/GRIN2A (Homo sapiens) (UniProt Q05586+Q12879); assay: Blockade of human recombinant NR1/NR2A expressed in xenopus oocytes assessed as inhibition of L-glutamate/glycine-induced whole-cell current at 10 uM at holding potential of -60 mV by electrophysiological assay relative to control
[2] = target: Transient receptor potential cation channel subfamily V member 1 (Rattus norvegicus) (UniProt O35433); assay: Blockade of rat recombinant TRPV1 expressed in xenopus oocytes assessed as inhibition of capsaicin-induced whole-cell current at 10 uM at holding potential of -60 mV by electrophysiological assay relative to control
[3] = target: Transient receptor potential cation channel subfamily V member 1 (Rattus norvegicus) (UniProt O35433); assay: Blockade of rat recombinant TRPV1 expressed in xenopus oocytes assessed as inhibition of capsaicin-induced whole-cell current at 1 uM at holding potential of -60 mV by electrophysiological assay relative to control

Sequence of Transient receptor potential cation channel subfamily V member 1 (Rattus norvegicus) (O35433 whole entry): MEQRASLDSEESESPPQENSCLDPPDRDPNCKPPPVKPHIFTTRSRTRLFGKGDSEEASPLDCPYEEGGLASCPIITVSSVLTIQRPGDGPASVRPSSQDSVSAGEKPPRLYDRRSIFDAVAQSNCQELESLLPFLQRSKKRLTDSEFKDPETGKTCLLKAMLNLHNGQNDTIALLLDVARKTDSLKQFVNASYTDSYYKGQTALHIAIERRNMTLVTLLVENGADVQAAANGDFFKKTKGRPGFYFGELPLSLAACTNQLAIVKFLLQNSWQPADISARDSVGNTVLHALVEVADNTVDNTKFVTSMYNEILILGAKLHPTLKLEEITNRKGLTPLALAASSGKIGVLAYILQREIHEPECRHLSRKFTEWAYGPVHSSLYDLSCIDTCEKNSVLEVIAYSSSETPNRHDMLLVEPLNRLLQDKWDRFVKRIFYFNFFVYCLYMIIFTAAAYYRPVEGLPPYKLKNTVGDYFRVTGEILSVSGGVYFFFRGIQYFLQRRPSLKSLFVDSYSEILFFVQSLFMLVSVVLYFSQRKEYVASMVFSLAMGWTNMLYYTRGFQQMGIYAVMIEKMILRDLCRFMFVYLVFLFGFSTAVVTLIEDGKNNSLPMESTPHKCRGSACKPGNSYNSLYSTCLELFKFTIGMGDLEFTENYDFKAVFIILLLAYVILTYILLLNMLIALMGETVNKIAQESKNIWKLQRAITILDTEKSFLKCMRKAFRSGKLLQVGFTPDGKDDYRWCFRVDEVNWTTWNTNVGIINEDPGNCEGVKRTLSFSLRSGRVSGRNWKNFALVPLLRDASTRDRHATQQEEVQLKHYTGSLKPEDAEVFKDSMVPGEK

inhibition [1] [%]	inhibition [2] [%]	inhibition [3] [%]	Compound
7.7	62.8	18.7	NC(=O)[C@H](Cc1c(Sc2ccccc2[N+](=O)[O-])[nH]c2ccccc12)NC(=O)[C@@H](N)CCCN=C(N)N
18.4	29.9	–	NC[C@@H]1NC(=O)N([C@@H](Cc2c(Sc3ccccc3[N+](=O)[O-])[nH]c3ccccc23)C(N)=O)C1=O
20.6	12	–	CC(=O)N[C@@H](CCCCN=C(N(C)C)N(C)C)C(=O)N[C@@H](Cc1c(Sc2ncccc2[N+](=O)[O-])[nH]c2ccccc12)C(N)=O
23.6	17	–	NCCCC[C@H](N)C(=O)N[C@@H](Cc1c(Sc2ncccc2[N+](=O)[O-])[nH]c2ccccc12)C(N)=O
13.6	12.7	–	CC(=O)N[C@@H](CCCCN)C(=O)N[C@@H](Cc1c(Sc2ncccc2[N+](=O)[O-])[nH]c2ccccc12)C(N)=O
6.4	44	–	CC(=O)N[C@@H](CCCCN=C(N1CCCC1)N1CCCC1)C(=O)N[C@@H](Cc1c(Sc2ccccc2[N+](=O)[O-])[nH]c2ccccc12)C(N)=O
30.2	16.6	–	CC(=O)N[C@@H](CCCCN=C(N1CCCC1)N1CCCC1)C(=O)N[C@@H](Cc1c(Sc2ncccc2[N+](=O)[O-])[nH]c2ccccc12)C(N)=O
13.5	26.3	–	NCCCC[C@H](N)C(=O)N[C@@H](Cc1c(Sc2ccccc2[N+](=O)[O-])[nH]c2ccccc12)C(N)=O
32.2	29	–	CC(=O)N[C@@H](CCCC[N+](C)(C)C)C(=O)N[C@@H](Cc1c(Sc2ccccc2[N+](=O)[O-])[nH]c2ccccc12)C(N)=O
10.5	15.4	–	NCCCC[C@@H]1NC(=O)N([C@@H](Cc2c(Sc3ccccc3[N+](=O)[O-])[nH]c3ccccc23)C(N)=O)C1=O
6.8	97.2	27.3	NC(=O)[C@H](Cc1c(Sc2ccccc2[N+](=O)[O-])[nH]c2ccccc12)NC(=O)[C@H](CCCCN=C(N1CCCC1)N1CCCC1)N=C(N1CCCC1)N1CCCC1
5.5	36.7	–	C[N+](C)(C)CCCC[C@H](N)C(=O)N[C@@H](Cc1c(Sc2ccccc2[N+](=O)[O-])[nH]c2ccccc12)C(N)=O
24	39.3	–	NC[C@H](N)C(=O)N[C@@H](Cc1c(Sc2ccccc2[N+](=O)[O-])[nH]c2ccccc12)C(N)=O
15.4	14.3	–	CC(=O)N[C@@H](CCCCN)C(=O)N[C@@H](Cc1c(Sc2ccccc2[N+](=O)[O-])[nH]c2ccccc12)C(N)=O
27	14.6	–	CC(=O)N[C@@H](CN)C(=O)N[C@@H](Cc1c(Sc2ccccc2[N+](=O)[O-])[nH]c2ccccc12)C(N)=O
9.3	13	–	CN(C)C(=NCCCC[C@@H]1NC(=O)N([C@@H](Cc2c(Sc3ccccc3[N+](=O)[O-])[nH]c3ccccc23)C(N)=O)C1=O)N(C)C
16	11	–	NCC[C@@H]1NC(=O)N([C@@H](Cc2c(Sc3ccccc3[N+](=O)[O-])[nH]c3ccccc23)C(N)=O)C1=O
12.9	52.5	–	NC(=O)[C@H](Cc1c(Sc2ncccc2[N+](=O)[O-])[nH]c2ccccc12)N1C(=O)N[C@@H](CCCCN=C(N2CCCC2)N2CCCC2)C1=O
20.6	19.9	–	C[N+](C)(C)CCCC[C@@H]1NC(=O)N([C@@H](Cc2c(Sc3ncccc3[N+](=O)[O-])[nH]c3ccccc23)C(N)=O)C1=O

inhibition [1] [%]	inhibition [2] [%]	inhibition [3] [%]	Compound
9.2	66.5	17.4	C[N+](C)(C)CCCC[C@@H]1NC(=O)N([C@@H](Cc2c(Sc3ccccc3[N+](=O)[O-])[nH]c3ccccc23)C(N)=O)C1=O
26.3	23.9	–	CC(=O)N[C@@H](CCCN=C(N)N)C(=O)N[C@@H](Cc1c(Sc2ncccc2[N+](=O)[O-])[nH]c2ccccc12)C(N)=O
24.2	54.3	–	NC(=O)[C@H](Cc1c(Sc2ncccc2[N+](=O)[O-])[nH]c2ccccc12)N1C(=O)N[C@@H](CCCN=C(N)N)C1=O
43.7	51.3	–	NC(=O)[C@H](Cc1c(Sc2ccccc2[N+](=O)[O-])[nH]c2ccccc12)N1C(=O)N[C@@H](CN=C(N2CCCC2)N2CCCC2)C1=O
8.3	55.8	–	NC(=O)[C@H](Cc1c(Sc2ccccc2[N+](=O)[O-])[nH]c2ccccc12)NC(=O)[C@@H](N)CCCCN=C(N1CCCC1)N1CCCC1
25.8	29.2	–	CC(=O)N[C@@H](CCCN=C(N)N)C(=O)N[C@@H](Cc1c(Sc2ccccc2[N+](=O)[O-])[nH]c2ccccc12)C(N)=O
20.2	50.2	–	NC(=O)[C@H](Cc1c(Sc2ccccc2[N+](=O)[O-])[nH]c2ccccc12)N1C(=O)N[C@@H](CCCN=C(N)N)C1=O
10.7	60.4	–	NC(=O)[C@H](Cc1c(Sc2ccccc2[N+](=O)[O-])[nH]c2ccccc12)N1C(=O)N[C@@H](CCCCN=C(N2CCCC2)N2CCCC2)C1=O
20.6	44.8	–	NC(=O)[C@H](Cc1c(Sc2ncccc2[N+](=O)[O-])[nH]c2ccccc12)NC(=O)[C@@H](N)CCCN=C(N)N
10.8	40.9	–	CN(C)C(=NCCCC[C@@H]1NC(=O)N([C@@H](Cc2c(Sc3ncccc3[N+](=O)[O-])[nH]c3ccccc23)C(N)=O)C1=O)N(C)C
26.8	24.6	–	NCCCC[C@@H]1NC(=O)N([C@@H](Cc2c(Sc3ncccc3[N+](=O)[O-])[nH]c3ccccc23)C(N)=O)C1=O
27.2	27.6	–	CC(=O)N[C@@H](CCN)C(=O)N[C@@H](Cc1c(Sc2ccccc2[N+](=O)[O-])[nH]c2ccccc12)C(N)=O
6.1	19.9	–	CC(=O)N[C@@H](CCCCN=C(N(C)C)N(C)C)C(=O)N[C@@H](Cc1c(Sc2ccccc2[N+](=O)[O-])[nH]c2ccccc12)C(N)=O
69.7	49.7	21.1	CN(C)C(=NCCCC[C@H](N)C(=O)N[C@@H](Cc1c(Sc2ccccc2[N+](=O)[O-])[nH]c2ccccc12)C(N)=O)N(C)C
13.9	76.1	23.5	NC(=O)[C@H](Cc1c(Sc2ccccc2[N+](=O)[O-])[nH]c2ccccc12)NC(=O)[C@@H](N)CCN=C(N1CCCC1)N1CCCC1
12	56.3	–	NC(=O)[C@H](Cc1c(Sc2ccccc2[N+](=O)[O-])[nH]c2ccccc12)N1C(=O)N[C@@H](CCN=C(N2CCCC2)N2CCCC2)C1=O
9.6	42.4	–	CC(=O)N[C@@H](CCN=C(N1CCCC1)N1CCCC1)C(=O)N[C@@H](Cc1c(Sc2ccccc2[N+](=O)[O-])[nH]c2ccccc12)C(N)=O
30.3	49.9	–	CC(=O)N[C@@H](CN=C(N1CCCC1)N1CCCC1)C(=O)N[C@@H](Cc1c(Sc2ccccc2[N+](=O)[O-])[nH]c2ccccc12)C(N)=O
29.7	20.6	–	NCC[C@H](N)C(=O)N[C@@H](Cc1c(Sc2ccccc2[N+](=O)[O-])[nH]c2ccccc12)C(N)=O
